{"source": "patent US20100266589A1", "about": "“ADJUVANT CANCER THERAPY” (priority 2009, published 2010)", "tested_on": "patients with resected stages II and III carcinoma of the colon", "assay": "NSABP C-08 clinical trial: bevacizumab added to mFOLFOX6 as adjuvant therapy", "assay_type": "in vivo", "source_text": "This example concerns analysis of results obtained from colorectal cancer subjects treated in the National Surgical Adjuvant Breast and Bowel Project (NSABP C-08) clinical trial. The primary aim of the study was to determine the clinical benefit of adding bevacizumab to standard chemotherapy for treating colorectal cancer, as measured by disease-free survival (DFS). A secondary goal was to determine if there was clinical benefit in prolonging overall survival. The standard chemotherapy used in this trial was a combination of leucovorin, 5-fluorouracil and oxaliplatin. This trial evaluated the efficacy of bevacizumab (AVASTIN®) as adjuvant therapy for patients with resected stages II and III carcinoma of the colon.\nIn the NSABP C-08 trial, the following treatment protocol was used:\nArm A/Group 1: modified FOLFOX6 (mFOLFOX6: oxaliplatin (85 mg/m^2) with concurrent leucovorin (400 mg/m^2) and 5-FU (400 mg/m^2 IV bolus) on Day 1 and 5-FU (2400 mg/m^2) over 46 hours on Day 1 and Day 2) q 14 days for 12 cycles (6 months);\nArm B/Group 2: modified FOLFOX6 q 14 days for 12 cycles (6 months) plus bevacizumab administered before oxaliplatin on Day 1 of each chemotherapy cycle (5 mg/kg IV) q 14 days for 1 year.\nThe primary endpoint of this trial was duration of disease free survival (DFS). […]\n2,710 patients were accrued to the study (1,356 to the contol arm and 1,354 to the experimental arm). 18 patients on the control arm and 20 patients on the experimental arm were not evaluated for efficacy due to no follow-up or positive surgical margins. […]\nTime to an event was measured from randomization. All p-values, other than the primary endpoint, were evaluated as significant at the 0.05 level two-sided. […] Hazard ratios (HR) were calculated from Cox models and p-values from time to event were from the log rank test. […] Smooth estimates of the underlying hazard functions were calculated by the method of Muller and Wang (Biometrics 1994 50:61-76). Smooth estimates of the ratio of the underlying hazards were calculated by the method of Gilbert et al. (Biometrics 2002 58:773-80).", "data": [{"substance": "Bevacizumab: recombinant humanized anti-VEGF monoclonal antibody; human IgG1 framework with CDRs from murine antibody A.4.6.1", "values": [{"measurement": "HR", "setting": "DFS, 1.25 years after initiation of treatment, vs mFOLFOX6 alone, 95% CI 0.48-0.78, p <0.0001", "value": 0.61}, {"measurement": "toxicities or adverse effects (in words)", "setting": "added to chemotherapy vs chemotherapy alone", "value": "not associated with any increased toxicities or adverse effects"}, {"measurement": "effect on DFS (in words)", "setting": "added to chemotherapy vs chemotherapy alone, during the first year (active treatment phase)", "value": "significantly increased DFS"}]}]}
